The experiment relates to ASC^−/− mice. Briefly: DSS colitis in ASC-deficient mice after oral antimicrobial pretreatment. Format: in vivo. To be noted: oral antiviral, antifungal or antiparasitic treatment before DSS; weight loss compared (FIGS. 13C-13E).

Take `Nc1nc(O)c2ncn(COC(CO)CO)c2n1` [gancyclovir]: the “severity of colitis in ASC-deficient mice” value is “None of these treatments altered the severity of colitis”.
For `C[C@@H]1[C@H](O)[C@@H](C)/C=C/C=C/C=C/C=C/C=C/C=C/C=C/[C@H](O[C@@H]2O[C@H](C)[C@@H](O)[C@H](N)[C@@H]2O)C[C@@H]2O[C@](O)(C[C@@H](O)C[C@@H](O)[C@H](O)CC[C@@H](O)C[C@@H](O)CC(=O)O[C@H]1C)C[C@H](O)[C@H]2C(=O)O` [amphotericin, amphotericin B] the value was “None of these treatments altered the severity of colitis”.

(Values after patent US20140377278A1, “Compositions and Methods for Assessing and Treating Inflammatory Diseases and Disorders” (Yale University, priority 2012, published 2014).)
